Measured values as given in PMC7979765, “trans-Translation inhibitors bind to a novel site on the ribosome and clear Neisseria gonorrhoeae in vivo” (Nature Communications, 2021).
Values after ≈ are worked out from the molar mass of the structure shown. Values joined by “and” are separate entries in the source; they are usually repeats but may differ in a detail not shown here. Equal entries are not always repeated. Where two headings read alike, the source gives them in different places.

What was measured:
Klebsiella pneumoniae = experiment: MIC, microbroth dilution; format: cell-based
trans-translation [1] = experiment: microbe, parasite or virus in culture; format: cell-based, Escherichia coli; details: for Luminescence readout (Envision plate reader) / Luminescence, background subtracted (DMSO control): per replicate
Description: To verify that MBX-4132 retains activity as an inhibitor of trans-translation, we measured its dose-dependent activity against the non-stop luciferase reporter assay strain E. coli SB75 ΔtolC::kan (pluc-trpAt) essentially as described, with modifications. Briefly, serial 1.5-fold dilutions of MBX-4132 in DMSO were transferred to 96-well assay plates (Costar 3195), followed by the addition of 50 µl of an overnight culture of SB75 ΔtolC::kan (pluc-trpAt) that had been diluted to a final OD600 of 0.4 with LB media supplemented with 100 µg ampicillin/ml and 1 mM IPTG. […] The assay plates were incubated at room temperature for 2 h, and 50 µl of BrightGlo (Promega) bioluminescence reagent was added to each well. After 10 min incubation, bioluminescence intensity was measured using an Envision multi-label plate reader (Perkin Elmer). Each assay comprised three technical replicates, and the experiment was repeated three times. The fold induction for each MBX-4132 treated sample as compared to the DMSO-only sample was calculated for each technical replicate, and the average and standard deviation of the three technical was calculated. The IC50 was determined using a 4-parameter nonlinear curve fitting algorithm (GraphPad Prism).

Escherichia coli = experiment: microbe, parasite or virus in culture; format: cell-based
trans-translation [2] = experiment: In vitro trans-translation assay (S12 extract, nanoluc-ns, tmRNA-nl); format: biochemical, Escherichia coli; details: in vitro reconstituted assay
From the text: The in vitro trans-translation assay is designed to produce the first 157 amino acids of nano-luciferase from a non-stop mRNA (nanoluc-ns) and add the C-terminal peptide […] via a mutant version of E. coli tmRNA (tmRNA-nl) to reconstitute an active nano-luciferase[45]. In this assay, the tagged nano-luciferase gene has >30,000-fold increase in activity over the peptide made in the absence of tmRNA-nl.
S12 lysates were made according to the procedure of Kim, et al.[46]. Briefly, a culture of E. coli BL21 (DE3) cells containing a pET28 plasmid carrying the E. coli T7 polymerase gene was grown at 37 °C to an OD600 = 0.8, induced with 1 mM IPTG and grown for an additional 3 h. Cells were harvested by centrifugation at 20,000 × g for 10 min at 4 °C and the pellet was resuspended in buffer A (20 mM Tris-acetate (pH 8.2), 14 mM Mg(OAc)2, 60 mM potassium glutamate, 1 mM DTT). Cells were lysed by sonication, the lysate was clarified by centrifugation at 12,000 × g for 10 min, and the supernatant was stored at −80 °C.
E. coli SmpB was purified as previously described. tmRNA-nl, a variant of E. coli tmRNA encoding the final 11 residues of nano-luciferase, was transcribed from the tmRNA-nl synthetic DNA sequence in vitro, purified, and folded as previously described for wild-type E. coli tmRNA[3]. The nanoluc-stop template DNA was prepared as previously described[3] by PCR amplification from pMC1 using T7 universal and nanoluc-stop primers. The nanoluc-ns was prepared in a similar manner using pMC1 with T7 universal and nanoluc-ns primers.
For in vitro trans-translation, tmRNA-nl and SmpB were premixed and stored on ice. S12 lysate (2 μl), freshly made polymix buffer (2 μl)[47] (final reaction concentrations 5 mM Hepes pH 7.6, 5 mM NH4Cl, 0.5 mM CaCl2, 1.5 mm MgCl2, 1 mM DTT, 8 mm putrescene, 2 mm ATP, 2 mM GTP, 1 mM CTP, 1 mM UTP, 0.3 mM each amino acid, 3 mg/ml E. coli tRNAs), nanoluc-ns template (0.5 μl; 60 ng) and 2 µl water were mixed and incubated at 37 °C for 5 min. This solution was dispensed to tubes containing 0.5 μl of different concentrations of an inhibitor prepared in 75% acetonitrile, 25% water, and incubated at 37 °C for 5 min. The tmRNA-nl/SmpB mixture (0.5 μl each, 2 μM final) was added to each tube and the samples were incubated at 37 °C for 1.5 h. NanoLuc substrate (Promega) was prepared according to the manufacturer’s instructions, one volume of this substrate solution was added to each sample tube, and the reactions transferred to a white 96-well plate. Luminescence readings were obtained using the SpectraMax i3 microplate reader. Data analysis was performed using GraphPad Prism 8.

Staphylococcus aureus = experiment: MIC, microbroth dilution; format: cell-based
[3] = [Compound] 0.0625 µM, listed as MBX-3535
[4] = [Compound] 0.125 µM, listed as MBX-3535
[5] = [Compound] 0.1875 µM, listed as MBX-3535
[6] = [Compound] 0.25 µM, listed as MBX-3535
[7] = [Compound] 0.375 µM, listed as MBX-3535
[8] = [Compound] 0.5 µM, listed as MBX-3535
[9] = [Compound] 0.75 µM, listed as MBX-3535
[10] = [Compound] 1 µM, listed as MBX-3535
[11] = [Compound] 1.5 µM, listed as MBX-3535

For `O=C(Nc1nnc(-c2ccc(F)cc2)o1)c1ccc(Cl)cc1` [KKL-35, 4-chloro-N-(5-(4-fluorophenyl)-1,3,4-oxadiazol-2-yl)benzamide], the MIC (Klebsiella pneumoniae; Klebsiella pneumoniae ATCC 13883, replicates) was at least 32 µg/mL, the MIC (Klebsiella pneumoniae; Klebsiella pneumoniae, ATCC13883, strain ATCC 13883, read-out: MIC) was at least 32 µg/mL and the IC50 (trans-translation [1]; Eco Luc reporter, one value per replicate, listed as MBX-3535, read-out: IC50) was 138 nM and 152 nM. The IC50 (trans-translation [1]; Escherichia coli, E. coli non-stop luciferase reporter, Fig. 1B, read-out: in vivo luc-trpAt IC50) was 100 nM, the IC50 (trans-translation [1]; Escherichia coli, Eco Luc reporter, one value per replicate, read-out: IC50) was 156 nM and the “Luminescence readout (Envision plate reader)” value (“Luminescence readout” for short) (trans-translation [1]; [Compound] 0.046875 µM, listed as MBX-3535) was 793720 and 792160 and 789800. The “Luminescence readout” value (trans-translation [1]; [3]) was 778080 and 758560 and 769120, the “Luminescence, background subtracted (DMSO control)” value (“Luminescence, background subtracted” for short) (trans-translation [1]; [3]) was -25080 and -11160 and -10320 and the “Luminescence readout” value (trans-translation [1]; [Compound] 0.09375 µM, listed as MBX-3535) was 796160 and 783440 and 809640. For the same compound, the “Luminescence readout” value (trans-translation [1]; [4]) was 838680 and 824680 and 839280, the “Luminescence, background subtracted” value (trans-translation [1]; [4]) was 35520 and 54960 and 59840 and the “Luminescence readout” value (trans-translation [1]; [5]) was 931120 and 911280 and 917880. For the same compound, the “Luminescence, background subtracted” value (trans-translation [1]; [5]) was 127960 and 141560 and 138440, the “Luminescence readout” value (trans-translation [1]; [6]) was 975560 and 925440 and 953800 and the “Luminescence, background subtracted” value (trans-translation [1]; [6]) was 172400 and 155720 and 174360. For the same compound, the “Luminescence readout” value (trans-translation [1]; [7]) was 918760 and 868800 and 899520, the “Luminescence, background subtracted” value (trans-translation [1]; [7]) was 115600 and 99080 and 120080 and the “Luminescence readout” value (trans-translation [1]; [8]) was 894760 and 832920 and 864960. The “Luminescence, background subtracted” value (trans-translation [1]; [8]) was 91600 and 63200 and 85520, the “Luminescence readout” value (trans-translation [1]; [9]) was 938080 and 885720 and 902440 and the “Luminescence, background subtracted” value (trans-translation [1]; [9]) was 134920 and 116000 and 123000. The “Luminescence readout” value (trans-translation [1]; [10]) was 1090520 and 985400 and 1035440, the “Luminescence, background subtracted” value (trans-translation [1]; [10]) was 287360 and 215680 and 256000 and the “Luminescence readout” value (trans-translation [1]; [11]) was 1101720 and 996520 and 1037480. The “Luminescence, background subtracted” value (trans-translation [1]; [11]) was 298560 and 226800 and 258040, the MIC (Escherichia coli; Escherichia coli KLE700, replicates) was at least 32 µg/mL and the MIC (Escherichia coli; Escherichia coli KLE701 (ΔtolC), replicates) was 0.50 µg/mL (≈ 1.57 µM). It also gave an MIC (Escherichia coli; Escherichia coli, E. coli KLE701 (ΔtolC::tet), source data, individual replicates) of 0.496 µg/mL (≈ 1.56 µM), an MIC (Escherichia coli; Escherichia coli, Escherichia coli KLE700, replicates, read-out: MIC) of at least 32 µg/mL and an MIC (Escherichia coli; Escherichia coli, Escherichia coli KLE701 (ΔtolC), replicates) of 0.5 µg/mL (≈ 1.57 µM). It also gave an MIC (Escherichia coli; Escherichia coli, strain KLE700, read-out: MIC) of at least 32 µg/mL, an MIC (Escherichia coli; Escherichia coli, strain KLE701, KLE700 ΔtolC::tet) of 0.5 µg/mL (≈ 1.57 µM) and an IC50 (trans-translation [2]) of 400 nM. For the same compound, the MIC (Staphylococcus aureus; Staphylococcus aureus ATCC 25923, replicates) was 1 µg/mL (≈ 3.15 µM), the MIC (Staphylococcus aureus; Staphylococcus aureus ATCC 35556, replicates) was 1 µg/mL (≈ 3.15 µM) and the MIC (Staphylococcus aureus; Staphylococcus aureus BAA-1717, replicates) was 1 µg/mL (≈ 3.15 µM). The MIC (Staphylococcus aureus; Staphylococcus aureus MRSA-1094, replicates) was 1 µg/mL (≈ 3.15 µM), the MIC (Staphylococcus aureus; Staphylococcus aureus MRSA-1234547263, replicates) was 1 µg/mL (≈ 3.15 µM) and the MIC (Staphylococcus aureus; Staphylococcus aureus MSSA, replicates) was 1 µg/mL (≈ 3.15 µM). The MIC (Staphylococcus aureus; Staphylococcus aureus N315, NRS-70, replicates) was 1 µg/mL (≈ 3.15 µM), the MIC (Staphylococcus aureus; Staphylococcus aureus NRS-77, replicates) was 1 µg/mL (≈ 3.15 µM) and the MIC (Staphylococcus aureus; Staphylococcus aureus THC1516, replicates) was 1 µg/ml (4×) and 0.5 µg/ml. For the same compound, the MIC (Staphylococcus aureus; Staphylococcus aureus, ATCC25923, Staphylococcus aureus ATCC 25923, replicates, read-out: MIC) was 1 µg/mL (≈ 3.15 µM), the MIC (Staphylococcus aureus; Staphylococcus aureus, ATCC25923, strain ATCC 25923, read-out: MIC) was 1 µg/mL (≈ 3.15 µM) and the MIC (Staphylococcus aureus; Staphylococcus aureus, ATCC35556, Staphylococcus aureus ATCC 35556, replicates, read-out: MIC) was 1 µg/mL (≈ 3.15 µM). It also gave an MIC (Staphylococcus aureus; Staphylococcus aureus, ATCC35556, strain ATCC 35556, read-out: MIC) of 1 µg/mL (≈ 3.15 µM), an MIC (Staphylococcus aureus; Staphylococcus aureus, BAA1717, Staphylococcus aureus BAA-1717, replicates, read-out: MIC) of 1 µg/mL (≈ 3.15 µM) and an MIC (Staphylococcus aureus; Staphylococcus aureus, BAA-1717 / MRSA, strain BAA-1717, MRSA, read-out: MIC) of 1 µg/mL (≈ 3.15 µM). It also gave an MIC (Staphylococcus aureus; Staphylococcus aureus, MRSA / NRS 70, strain N315, NRS-70, MRSA, read-out: MIC) of 1 µg/mL (≈ 3.15 µM), an MIC (Staphylococcus aureus; Staphylococcus aureus, MRSA, Staphylococcus aureus MRSA-1094, replicates, read-out: MIC) of 1 µg/mL (≈ 3.15 µM) and an MIC (Staphylococcus aureus; Staphylococcus aureus, MRSA, Staphylococcus aureus MRSA-1234547263, replicates, read-out: MIC) of 1 µg/mL (≈ 3.15 µM). The MIC (Staphylococcus aureus; Staphylococcus aureus, MRSA, strain MRSA-1094, MRSA, read-out: MIC) was 1 µg/mL (≈ 3.15 µM), the MIC (Staphylococcus aureus; Staphylococcus aureus, MRSA, strain MRSA-1234547263, MRSA, read-out: MIC) was 1 µg/mL (≈ 3.15 µM) and the MIC (Staphylococcus aureus; Staphylococcus aureus, MRSA, strain THC1516, MRSA, read-out: MIC) was 0.9 µg/mL (≈ 2.83 µM). It also gave an MIC (Staphylococcus aureus; Staphylococcus aureus, MSSA, Staphylococcus aureus MSSA, replicates, read-out: MIC) of 1 µg/mL (≈ 3.15 µM), an MIC (Staphylococcus aureus; Staphylococcus aureus, MSSA, strain MSSA, read-out: MIC) of 1 µg/mL (≈ 3.15 µM) and an MIC (Staphylococcus aureus; Staphylococcus aureus, NRS70, Staphylococcus aureus N315, NRS-70, replicates, read-out: MIC) of 1 µg/mL (≈ 3.15 µM). For the same compound, the MIC (Staphylococcus aureus; Staphylococcus aureus, NRS77, Staphylococcus aureus NRS-77, replicates, read-out: MIC) was 1 µg/mL (≈ 3.15 µM), the MIC (Staphylococcus aureus; Staphylococcus aureus, NRS77, strain NRS-77, read-out: MIC) was 1 µg/mL (≈ 3.15 µM) and the MIC (Staphylococcus aureus; Staphylococcus aureus, Staphylococcus aureus THC1516, replicates, read-out: MIC) was 1 µg/mL (≈ 3.15 µM).
